In test [1] the test system is cord blood (CB)-derived CD34+ cells. In kind it is cell-based, human. Particulars: CB-derived CD34+ HSPC; MOI 1; 20 μm FK506, 5 mM 3-MA alone or with 10 μM CsA / 10 μg/mL rapamycin. As for the experimental part:
(§1) Human CB and BM-derived haematopoietic stem/progenitor cells (HSPC) were cultured in serum-free StemSpan medium (StemCell Technologies) supplemented with 100 ng/mL recombinant human stem cell factor (rhSCF), 20 ng/mL recombinant human thrombopoietin (rhTPO), 100 ng/mL recombinant human Flt3 ligand (rhFlt3) and 20 ng/mL recombinant human IL6 (rhIL6) (all from Peprotech) 16 to 24 hours prior to transduction. HSPC were then transduced at a concentration of 1×10^6 cells per mL with vesicular stomatitis virus glycoprotein (VSV-G)-pseudotyped SINLV for 20 hours at the indicated multiplicity of infection (MOI) in the same medium. After transduction, cells were washed and maintained serum-free StemSpan supplemented with cytokines as above until the reading of GFP-positive (GFP+) cells by FACS. After FACS they were maintained in Roswell Park Memorial Institute medium (RPMI, Lonza) supplemented with 10% FBS, 25 ng/mL rhSCF, 5 ng/mL rhIL6, 25 ng/mL rhFlt3 and 5 ng/mL rhTPO for another seven days before analysis of vector copy numbers. MDM were transduced 7 days after differentiation. T lymphocytes were transduced at a concentration of 10^6 cells per mL, after 3 days of stimulation. All the cells were exposed to the vector for 16-20 hours.
(§2) They were added to the transduction medium at the indicated concentration and washed out with the vector 16-20 hours later.
(§3) GFP expression in transduced cells was measured 5-7 days post-transduction. Adherent MDM were detached by scraping in 5 mM PBS-EDTA, washed and resuspended in PBS containing 2% FBS. Cells grown in suspension were washed and resuspended in PBS containing 2% FBS. To exclude dead cells from the analysis, 10 ng/mL 7-aminoactinomycin D (7-AAD) was added.
(§4) DNA from cell cultures was extracted using a Maxwell 16 instrument (Promega) or Blood & Cell Culture DNA Micro Kit (Qiagen). To amplify the vector sequence, primers and probes complementary to the vector Rev responsive element sequence were used. Vector copy numbers and replication intermediates were normalised to genomic DNA content, which was assessed using the human TERT gene. Quantitative polymerase chain reaction (qPCR) primers and probe sequences and conditions were previously described (Santoni de Sio, F. R. et al (2006) Blood 107: 4257-65).

Test [2] deals with bone marrow (BM)-derived CD34+ cells. In kind it is cell-based, human. Particulars: BM-derived CD34+ HSPC; MOI 1; 20 μm FK506, 5 mM 3-MA alone or with 10 μM CsA / 10 μg/mL rapamycin. As for the experimental part:
as §1, §2, §3, §4

The source of these data is patent publication US10391201B2, “Gene therapy” (Ospedale San Raffaele S.r.l., priority 2014, dated 2019).

Each structure is given as a SMILES string.

On to `Cn1cnc(N)c2ncnc1-2` [3-MA, 3-methyladenine], for which the “impact on LV transduction efficiency (in words)” value in test [1] and in test [2] was “little or no effect” each time.
